Test results taken from ChEMBL document CHEMBL3991601, “The target landscape of clinical kinase drugs” (Science, 2017).
Calls of active or inactive are those of the source.

These compounds were tested against Epithelial discoidin domain-containing receptor 1 (Homo sapiens, UniProt Q08345).
Further: in the data inactive means no Kd found up to 30 µM.

Sequence of Epithelial discoidin domain-containing receptor 1 (Q08345 whole entry, the tested form may be a part): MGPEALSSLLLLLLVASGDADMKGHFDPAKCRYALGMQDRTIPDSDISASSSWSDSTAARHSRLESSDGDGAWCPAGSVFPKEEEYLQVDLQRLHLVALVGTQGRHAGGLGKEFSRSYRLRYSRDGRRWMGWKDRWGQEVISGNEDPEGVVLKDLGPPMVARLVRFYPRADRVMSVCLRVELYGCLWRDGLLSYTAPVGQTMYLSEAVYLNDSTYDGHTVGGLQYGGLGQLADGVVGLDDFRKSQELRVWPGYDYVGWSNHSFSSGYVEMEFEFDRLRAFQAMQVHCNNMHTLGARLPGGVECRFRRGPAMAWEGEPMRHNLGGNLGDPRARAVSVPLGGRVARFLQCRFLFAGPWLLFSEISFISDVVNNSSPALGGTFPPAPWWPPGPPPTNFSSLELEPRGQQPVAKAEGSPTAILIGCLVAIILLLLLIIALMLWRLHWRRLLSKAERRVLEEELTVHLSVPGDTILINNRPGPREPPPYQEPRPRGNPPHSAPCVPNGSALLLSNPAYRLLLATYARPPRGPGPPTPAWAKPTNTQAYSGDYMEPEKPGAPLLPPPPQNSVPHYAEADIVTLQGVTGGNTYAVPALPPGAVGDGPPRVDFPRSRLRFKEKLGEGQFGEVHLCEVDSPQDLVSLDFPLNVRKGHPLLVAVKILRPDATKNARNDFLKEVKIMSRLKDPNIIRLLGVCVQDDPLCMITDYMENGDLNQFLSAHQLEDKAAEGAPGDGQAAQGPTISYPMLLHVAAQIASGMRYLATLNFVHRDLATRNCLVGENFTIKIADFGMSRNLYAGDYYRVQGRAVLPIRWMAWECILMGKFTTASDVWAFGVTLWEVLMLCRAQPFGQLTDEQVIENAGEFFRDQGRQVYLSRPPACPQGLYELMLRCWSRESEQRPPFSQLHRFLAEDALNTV

Row | Structure (SMILES) | Kd
1 | CC(=O)Nc1cccc(-n2c(=O)n(C3CC3)c(=O)c3c(Nc4ccc(I)cc4F)n(C)c(=O)c(C)c32)c1 [TRAMETINIB] | > 30 µM (inactive)
2 | CN1N=C(N)c2cn([C@@H]3O[C@H](COP(=O)(O)O)[C@@H](O)[C@H]3O)c3ncnc1c23 [TRICIRIBINE PHOSPHATE] | > 30 µM (inactive)
3 | CC(C)Nc1cc(-c2c[nH]c(C(=O)N[C@H](CO)c3cccc(Cl)c3)c2)c(Cl)cn1 [ULIXERTINIB] | > 30 µM (inactive)
4 | CCCS(=O)(=O)Nc1ccc(F)c(C(=O)c2c[nH]c3ncc(-c4ccc(Cl)cc4)cc23)c1F [VEMURAFENIB] | > 30 µM (inactive)
5 | CC[C@@H]1C(=O)N(C)c2cnc(Nc3ccc(C(=O)N[C@H]4CC[C@H](N5CCN(CC6CC6)CC5)CC4)cc3OC)nc2N1C(C)C [VOLASERTIB] | > 30 µM (inactive)
6 | CCn1c(=O)c(-c2cc[nH]n2)cc2c(C)nc(N)nc21 [VOXTALISIB] | > 30 µM (inactive)
7 | O=C(Nc1ccc(-c2ccnc(Nc3ccc(N4CCOCC4)cc3)n2)cc1)C1CCCN1 (stereo not given) [XL-019] | > 30 µM (inactive)

These compounds were tested against T1, Tyrosine-protein kinase Tec (Homo sapiens, UniProt P42680).
T1 sequence (P42680 whole entry): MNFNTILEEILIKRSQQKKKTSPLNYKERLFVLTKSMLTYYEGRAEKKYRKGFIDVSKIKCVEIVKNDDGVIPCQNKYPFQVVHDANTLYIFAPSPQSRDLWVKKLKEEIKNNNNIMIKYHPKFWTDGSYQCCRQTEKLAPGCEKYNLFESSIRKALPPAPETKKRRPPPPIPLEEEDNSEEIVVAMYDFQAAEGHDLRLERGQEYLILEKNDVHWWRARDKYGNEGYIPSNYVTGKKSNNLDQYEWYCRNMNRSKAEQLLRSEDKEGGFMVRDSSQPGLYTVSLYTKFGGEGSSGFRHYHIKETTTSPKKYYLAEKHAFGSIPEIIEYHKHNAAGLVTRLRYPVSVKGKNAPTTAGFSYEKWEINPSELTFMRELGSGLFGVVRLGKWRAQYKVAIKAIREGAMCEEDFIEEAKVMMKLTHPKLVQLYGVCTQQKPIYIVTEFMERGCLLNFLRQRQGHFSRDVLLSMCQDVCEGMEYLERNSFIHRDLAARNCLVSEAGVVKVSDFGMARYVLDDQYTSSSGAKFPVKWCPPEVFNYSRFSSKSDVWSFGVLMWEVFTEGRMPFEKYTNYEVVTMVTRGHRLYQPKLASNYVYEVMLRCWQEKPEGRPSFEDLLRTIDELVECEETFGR

Row | Structure (SMILES) | Kd
8 | CC(=O)Nc1cccc(-n2c(=O)n(C3CC3)c(=O)c3c(Nc4ccc(I)cc4F)n(C)c(=O)c(C)c32)c1 [TRAMETINIB] | > 30 µM (inactive)
9 | CN1N=C(N)c2cn([C@@H]3O[C@H](COP(=O)(O)O)[C@@H](O)[C@H]3O)c3ncnc1c23 [TRICIRIBINE PHOSPHATE] | > 30 µM (inactive)
10 | CC(C)Nc1cc(-c2c[nH]c(C(=O)N[C@H](CO)c3cccc(Cl)c3)c2)c(Cl)cn1 [ULIXERTINIB] | > 30 µM (inactive)
11 | CCCS(=O)(=O)Nc1ccc(F)c(C(=O)c2c[nH]c3ncc(-c4ccc(Cl)cc4)cc23)c1F [VEMURAFENIB] | > 30 µM (inactive)
12 | CC[C@@H]1C(=O)N(C)c2cnc(Nc3ccc(C(=O)N[C@H]4CC[C@H](N5CCN(CC6CC6)CC5)CC4)cc3OC)nc2N1C(C)C [VOLASERTIB] | > 30 µM (inactive)
13 | CCn1c(=O)c(-c2cc[nH]n2)cc2c(C)nc(N)nc21 [VOXTALISIB] | > 30 µM (inactive)
14 | O=C(Nc1ccc(-c2ccnc(Nc3ccc(N4CCOCC4)cc3)n2)cc1)C1CCCN1 (stereo not given) [XL-019] | > 30 µM (inactive)

The compounds below were run against T2, Ephrin type-B receptor 3 (Homo sapiens, UniProt P54753).
T2 sequence (P54753 whole entry): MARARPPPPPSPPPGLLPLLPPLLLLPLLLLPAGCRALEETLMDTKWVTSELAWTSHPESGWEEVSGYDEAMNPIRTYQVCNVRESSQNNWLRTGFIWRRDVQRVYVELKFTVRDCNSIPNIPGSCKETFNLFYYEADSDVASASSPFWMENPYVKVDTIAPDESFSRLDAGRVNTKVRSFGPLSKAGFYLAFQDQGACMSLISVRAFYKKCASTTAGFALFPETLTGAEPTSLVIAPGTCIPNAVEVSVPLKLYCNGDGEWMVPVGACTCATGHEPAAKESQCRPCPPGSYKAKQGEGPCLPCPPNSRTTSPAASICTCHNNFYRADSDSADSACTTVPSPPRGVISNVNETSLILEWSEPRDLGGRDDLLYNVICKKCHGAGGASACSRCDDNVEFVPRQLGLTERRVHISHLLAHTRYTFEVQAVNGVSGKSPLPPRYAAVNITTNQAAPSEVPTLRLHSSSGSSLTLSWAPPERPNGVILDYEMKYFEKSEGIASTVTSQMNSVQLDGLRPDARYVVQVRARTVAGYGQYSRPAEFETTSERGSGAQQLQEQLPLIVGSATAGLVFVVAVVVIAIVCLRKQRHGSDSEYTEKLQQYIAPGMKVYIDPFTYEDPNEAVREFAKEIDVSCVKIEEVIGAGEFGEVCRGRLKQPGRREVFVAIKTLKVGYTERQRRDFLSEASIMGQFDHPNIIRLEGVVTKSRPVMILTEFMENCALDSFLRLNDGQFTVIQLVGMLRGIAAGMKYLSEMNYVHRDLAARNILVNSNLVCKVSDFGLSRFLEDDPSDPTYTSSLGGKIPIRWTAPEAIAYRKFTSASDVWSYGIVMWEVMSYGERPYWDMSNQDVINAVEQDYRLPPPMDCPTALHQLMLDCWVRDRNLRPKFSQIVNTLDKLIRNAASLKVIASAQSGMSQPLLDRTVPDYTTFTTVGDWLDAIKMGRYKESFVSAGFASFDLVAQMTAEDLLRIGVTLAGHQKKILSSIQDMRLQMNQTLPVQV

Row | Structure (SMILES) | Kd
15 | CC(=O)Nc1cccc(-n2c(=O)n(C3CC3)c(=O)c3c(Nc4ccc(I)cc4F)n(C)c(=O)c(C)c32)c1 [TRAMETINIB] | > 30 µM (inactive)
16 | CN1N=C(N)c2cn([C@@H]3O[C@H](COP(=O)(O)O)[C@@H](O)[C@H]3O)c3ncnc1c23 [TRICIRIBINE PHOSPHATE] | > 30 µM (inactive)
17 | CC(C)Nc1cc(-c2c[nH]c(C(=O)N[C@H](CO)c3cccc(Cl)c3)c2)c(Cl)cn1 [ULIXERTINIB] | > 30 µM (inactive)
18 | CCCS(=O)(=O)Nc1ccc(F)c(C(=O)c2c[nH]c3ncc(-c4ccc(Cl)cc4)cc23)c1F [VEMURAFENIB] | > 30 µM (inactive)
19 | CC[C@@H]1C(=O)N(C)c2cnc(Nc3ccc(C(=O)N[C@H]4CC[C@H](N5CCN(CC6CC6)CC5)CC4)cc3OC)nc2N1C(C)C [VOLASERTIB] | > 30 µM (inactive)
20 | CCn1c(=O)c(-c2cc[nH]n2)cc2c(C)nc(N)nc21 [VOXTALISIB] | > 30 µM (inactive)
21 | O=C(Nc1ccc(-c2ccnc(Nc3ccc(N4CCOCC4)cc3)n2)cc1)C1CCCN1 (stereo not given) [XL-019] | > 30 µM (inactive)

Each compound was assayed against T3, Heme oxygenase 2 (Homo sapiens, UniProt P30519).
T3 sequence (P30519 whole entry): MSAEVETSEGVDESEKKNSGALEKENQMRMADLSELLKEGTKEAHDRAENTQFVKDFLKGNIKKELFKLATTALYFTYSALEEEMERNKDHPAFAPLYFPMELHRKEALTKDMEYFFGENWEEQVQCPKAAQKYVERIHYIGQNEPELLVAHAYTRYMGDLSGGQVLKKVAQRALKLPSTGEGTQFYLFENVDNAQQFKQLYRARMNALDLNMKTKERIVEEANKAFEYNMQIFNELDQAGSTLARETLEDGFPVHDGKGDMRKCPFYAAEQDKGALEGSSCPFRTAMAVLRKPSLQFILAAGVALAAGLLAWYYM

Row | Structure (SMILES) | Kd
22 | CC(=O)Nc1cccc(-n2c(=O)n(C3CC3)c(=O)c3c(Nc4ccc(I)cc4F)n(C)c(=O)c(C)c32)c1 [TRAMETINIB] | > 30 µM (inactive)
23 | CN1N=C(N)c2cn([C@@H]3O[C@H](COP(=O)(O)O)[C@@H](O)[C@H]3O)c3ncnc1c23 [TRICIRIBINE PHOSPHATE] | > 30 µM (inactive)
24 | CC(C)Nc1cc(-c2c[nH]c(C(=O)N[C@H](CO)c3cccc(Cl)c3)c2)c(Cl)cn1 [ULIXERTINIB] | > 30 µM (inactive)
25 | CCCS(=O)(=O)Nc1ccc(F)c(C(=O)c2c[nH]c3ncc(-c4ccc(Cl)cc4)cc23)c1F [VEMURAFENIB] | > 30 µM (inactive)
26 | CC[C@@H]1C(=O)N(C)c2cnc(Nc3ccc(C(=O)N[C@H]4CC[C@H](N5CCN(CC6CC6)CC5)CC4)cc3OC)nc2N1C(C)C [VOLASERTIB] | > 30 µM (inactive)
27 | CCn1c(=O)c(-c2cc[nH]n2)cc2c(C)nc(N)nc21 [VOXTALISIB] | > 30 µM (inactive)
28 | O=C(Nc1ccc(-c2ccnc(Nc3ccc(N4CCOCC4)cc3)n2)cc1)C1CCCN1 (stereo not given) [XL-019] | > 30 µM (inactive)

Each compound was assayed against T4, Dynamin-like GTPase OPA1, mitochondrial (Homo sapiens, UniProt O60313).
T4 sequence (O60313 whole entry): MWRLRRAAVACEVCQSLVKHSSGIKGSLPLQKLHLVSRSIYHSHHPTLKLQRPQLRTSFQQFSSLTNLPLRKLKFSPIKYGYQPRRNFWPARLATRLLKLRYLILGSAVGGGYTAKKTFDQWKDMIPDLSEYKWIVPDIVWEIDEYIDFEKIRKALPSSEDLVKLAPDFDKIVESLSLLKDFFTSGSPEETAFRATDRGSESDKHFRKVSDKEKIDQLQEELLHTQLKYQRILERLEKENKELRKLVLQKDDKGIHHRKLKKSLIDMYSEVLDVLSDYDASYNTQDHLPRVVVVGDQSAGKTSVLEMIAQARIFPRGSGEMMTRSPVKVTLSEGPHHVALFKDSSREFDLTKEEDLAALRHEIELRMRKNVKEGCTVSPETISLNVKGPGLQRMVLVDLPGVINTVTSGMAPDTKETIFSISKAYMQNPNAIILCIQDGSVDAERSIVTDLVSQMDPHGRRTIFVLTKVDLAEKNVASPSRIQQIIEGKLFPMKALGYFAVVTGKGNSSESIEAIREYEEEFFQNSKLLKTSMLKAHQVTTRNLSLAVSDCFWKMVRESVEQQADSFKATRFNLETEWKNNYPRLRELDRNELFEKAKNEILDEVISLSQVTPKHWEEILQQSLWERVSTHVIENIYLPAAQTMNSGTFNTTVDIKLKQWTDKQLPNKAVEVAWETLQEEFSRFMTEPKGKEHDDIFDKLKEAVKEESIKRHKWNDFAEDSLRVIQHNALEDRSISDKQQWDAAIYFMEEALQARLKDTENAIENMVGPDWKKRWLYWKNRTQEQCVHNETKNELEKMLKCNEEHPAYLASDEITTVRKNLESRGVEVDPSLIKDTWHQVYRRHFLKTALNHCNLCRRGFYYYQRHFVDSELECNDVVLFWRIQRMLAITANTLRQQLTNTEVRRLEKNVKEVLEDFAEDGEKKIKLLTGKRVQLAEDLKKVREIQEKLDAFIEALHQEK

Row | Structure (SMILES) | Kd
29 | CC(=O)Nc1cccc(-n2c(=O)n(C3CC3)c(=O)c3c(Nc4ccc(I)cc4F)n(C)c(=O)c(C)c32)c1 [TRAMETINIB] | > 30 µM (inactive)
30 | CN1N=C(N)c2cn([C@@H]3O[C@H](COP(=O)(O)O)[C@@H](O)[C@H]3O)c3ncnc1c23 [TRICIRIBINE PHOSPHATE] | > 30 µM (inactive)
31 | CC(C)Nc1cc(-c2c[nH]c(C(=O)N[C@H](CO)c3cccc(Cl)c3)c2)c(Cl)cn1 [ULIXERTINIB] | > 30 µM (inactive)
32 | CCCS(=O)(=O)Nc1ccc(F)c(C(=O)c2c[nH]c3ncc(-c4ccc(Cl)cc4)cc23)c1F [VEMURAFENIB] | > 30 µM (inactive)
33 | CC[C@@H]1C(=O)N(C)c2cnc(Nc3ccc(C(=O)N[C@H]4CC[C@H](N5CCN(CC6CC6)CC5)CC4)cc3OC)nc2N1C(C)C [VOLASERTIB] | > 30 µM (inactive)
34 | CCn1c(=O)c(-c2cc[nH]n2)cc2c(C)nc(N)nc21 [VOXTALISIB] | > 30 µM (inactive)
35 | O=C(Nc1ccc(-c2ccnc(Nc3ccc(N4CCOCC4)cc3)n2)cc1)C1CCCN1 (stereo not given) [XL-019] | > 30 µM (inactive)
